In assay [1] the target is T1, human Cot catalytic domain (30-397 amino acids) (Homo sapiens, UniProt P41279).
T1 construct: Purified recombinant human Cot catalytic domain (30-397 amino acids) was purchased from Cama Biosciences; purchased Cama Biosciences (so in the source)
The experiment in a line: High Throughput Cot Biochemical Assay (KinEASE TR-FRET). To be noted: Cot biochemical HTRF (KinEASE TR-FRET) assay; read-out: IC50 HTRF. The method in brief: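 Reaction of 5 nM recombinant human Cot catalytic domain (aa 30-397) with 1 μM STK3 peptide (XL665-labeled) and 400 μM ATP in 10 mM MOPS pH 7.0, 10 mM MgOAc, 1 mM DTT, 0.5 mg/mL BSA, 0.1% DMSO. Phosphopeptide detected by TR-FRET with europium anti-phospho antibody.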
In general terms: Time-resolved FRET reads energy transfer from a long-lived donor to a nearby acceptor.

Assay [2] relates to TNFα production in LPS-stimulated human monocytes. Put plainly: Cot Monocyte TNFα Cell Based Assay. As to conditions: read-out: EC50 TNF. The method in brief: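 Cells at 5,000/well were pretreated with compound for 1 h at 37 °C (0.5% DMSO final), then stimulated with 50 pg/ml LPS for 4 h at 37 °C. Supernatant TNFα was measured by two-antibody TR-FRET after overnight room-temperature incubation; values are percent of control between unstimulated and stimulated wells.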

Setting [3] is: Homo sapiens, Monocyte, TNFα in LPS-stimulated human monocytes.
Setting [4] is: TNFα in LPS-stimulated human monocytes.

Usually IC50 stands for the point on the concentration scale where inhibition reaches its midpoint. By EC50 is commonly meant the concentration giving half of the maximal effect.

Where two headings read alike, the source gives them in different places.

T1 sequence (P41279 30-397): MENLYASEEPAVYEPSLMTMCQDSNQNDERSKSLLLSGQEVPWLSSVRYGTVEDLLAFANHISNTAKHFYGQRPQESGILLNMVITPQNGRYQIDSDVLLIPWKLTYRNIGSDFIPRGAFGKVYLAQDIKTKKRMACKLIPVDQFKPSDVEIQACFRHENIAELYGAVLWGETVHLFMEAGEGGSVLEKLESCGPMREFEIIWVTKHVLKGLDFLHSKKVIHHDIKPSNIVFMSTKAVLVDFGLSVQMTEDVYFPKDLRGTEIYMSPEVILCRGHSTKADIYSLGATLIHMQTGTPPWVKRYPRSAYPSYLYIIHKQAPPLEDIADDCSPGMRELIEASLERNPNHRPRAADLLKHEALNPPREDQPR

In the case of `N#Cc1cccc([C@H](Nc2cc(Cl)c3ncc(C#N)c(Nc4cnc(F)c(F)c4)c3c2)c2c[nH]nn2)c1` [Example 424, (S)-8-chloro-6-(((3-cyanophenyl)(1H-1,2,3-triazol-4-yl)methyl)amino)-4-((5,6-difluoropyridin-3-yl)amino)quinoline-3-carbonitrile], the concentration for half-maximal inhibition (IC50) in assay [1] stood at 6 nM. Further, the EC50 in assay [2] (setting [3]) was 415 nM.
Take `N#Cc1cnc2c(Cl)cc(N[C@@H](c3ccc(F)cc3)c3c[nH]nn3)cc2c1Nc1cnc(F)c(Cl)c1` [Example 425, (S)-8-chloro-4-((5-chloro-6-fluoropyridin-3-yl)amino)-6-(((4-fluorophenyl)(1H-1,2,3-triazol-4-yl)methyl)amino)quinoline-3-carbonitrile]: in assay [1], the IC50 is 10 nM. Further, in assay [2] (setting [3]), the EC50 was determined as 438 nM.
The corresponding values for `CC[C@@H](Nc1c(C#N)cnc2c(Cl)cc(N[C@H](c3cnn(C(F)F)n3)c3cccc(F)c3F)cc12)c1ccccc1` [Example 426, 8-chloro-6-(((S)-(2-(difluoromethyl)-2H-1,2,3-triazol-4-yl)(2,3-difluorophenyl)methyl)amino)-4-(((R)-1-phenylpropyl)amino) quinoline-3-carbonitrile] are 3150 nM and > 10000 nM.
The like results for `CC[C@@H](Nc1c(C#N)cnc2c(Cl)cc(N[C@@H](c3cccc(F)c3F)c3cnnn3C(F)F)cc12)c1ccccc1` [Example 427, 8-chloro-6-(((S)-(1-(difluoromethyl)-1H-1,2,3-triazol-5-yl)(2,3-difluorophenyl)methyl)amino)-4-(((R)-1-phenylpropyl)amino) quinoline-3-carbonitrile] were, in that order, 316 nM and 8880 nM.
For the compound `CC[C@@H](Nc1c(C#N)cnc2c(Cl)cc(N[C@H](c3cn(C(F)F)nn3)c3cccc(F)c3F)cc12)c1ccccc1` [Example 428, 8-chloro-6-(((S)-(1-(difluoromethyl)-1H-1,2,3-triazol-4-yl)(2,3-difluorophenyl)methyl)amino)-4-(((R)-1-phenylpropyl)amino) quinoline-3-carbonitrile], in assay [1], the IC50 is 87 nM. In assay [2] (setting [3]), the 50% effective concentration (EC50) came out at 1830 nM.
The like results for `CC[C@@H](Nc1c(C#N)cnc2c(Cl)cc(N[C@H](c3cn(C4CC4)nn3)c3ccccc3F)cc12)c1ccccc1` [Example 429, 8-chloro-6-(((S)-(1-cyclopropyl-1H-1,2,3-triazol-4-yl)(2-fluorophenyl)methyl)amino)-4-(((R)-1-phenylpropyl)amino)quinoline-3-carbonitrile] were, in that order, 9 nM and 257 nM.
On to `N#Cc1cnc2c(Cl)cc(N[C@H](c3cn(C4CC4)nn3)c3ccccc3F)cc2c1Nc1cnc(F)c(F)c1` [Example 430, (S)-8-chloro-6-(((1-cyclopropyl-1H-1,2,3-triazol-4-yl)(2-fluorophenyl)methyl)amino)-4-((5,6-difluoropyridin-3-yl)amino)quinoline-3-carbonitrile], for which the IC50 in assay [1] was 7 nM. The EC50 in assay [2] (setting [3]) is 679 nM.
As to `C[Si](C)(C)Cn1cc([C@@H](Nc2cc(Cl)c3ncc(C#N)c(Nc4cnc(F)c(F)c4)c3c2)c2ccccc2F)nn1` [Example 431, (S)-8-chloro-4-((5,6-difluoropyridin-3-yl)amino)-6-(((2-fluorophenyl)(1-((trimethylsilyl)methyl)-1H-1,2,3-triazol-4-yl)methyl)amino)quinoline-3-carbonitrile], the IC50 in assay [1] is 96 nM. Further, the 50% effective concentration (EC50) in assay [2] (Homo sapiens, Monocyte) is 3280 nM.
On to `N#Cc1cnc2c(Cl)cc(N[C@@H](c3ccc(F)cc3)c3c[nH]nn3)cc2c1N[C@@H](CCO)c1ccccc1` [Example 432, 8-chloro-6-(((S)-(4-fluorophenyl)(1H-1,2,3-triazol-4-yl)methyl)amino)-4-(((S)-3-hydroxy-1-phenylpropyl)amino)quinoline-3-carbonitrile], for which the IC50 in assay [1] was determined as 624 nM. Further, the EC50 in assay [2] (setting [3]) came out at 3930 nM.
On to `N#Cc1cnc2c(Cl)cc(N[C@@H](c3ccc(F)cc3)c3c[nH]nn3)cc2c1N[C@H](CO)c1ccccc1` [Example 433, 8-chloro-6-(((S)-(4-fluorophenyl)(1H-1,2,3-triazol-4-yl)methyl)amino)-4-(((S)-2-hydroxy-1-phenylethyl)amino)quinoline-3-carbonitrile], for which the IC50 in assay [1] stood at 31 nM. The EC50 in assay [2] (setting [3]) is 1380 nM.
On to `CC[C@@H](Nc1c(C#N)cnc2c(Cl)cc(NC(c3ccc(F)cc3)c3nn[nH]c3OC)cc12)c1ccccc1` (stereo partly drawn) [Example 434, 8-chloro-6-(((4-fluorophenyl)(5-methoxy-1H-1,2,3-triazol-4-yl)methyl)amino)-4-(((R)-1-phenylpropyl)amino)quinoline-3-carbonitrile], for which the IC50 in assay [1] amounted to 2760 nM. For the same compound, the EC50 in assay [2] (setting [3]) came out at 2380 nM.
On to `COc1[nH]nnc1C(Nc1cc(Cl)c2ncc(C#N)c(Nc3cnc(F)c(F)c3)c2c1)c1ccc(F)cc1` (centres unmarked) [Example 435, 8-chloro-4-((5,6-difluoropyridin-3-yl)amino)-6-(((4-fluorophenyl)(5-methoxy-1H-1,2,3-triazol-4-yl)methyl)amino)quinoline-3-carbonitrile], for which the IC50 in assay [1] stood at 7930 nM. Further, the EC50 in assay [2] (setting [3]) was > 10000 nM.
As for `N#Cc1cnc2c(Cl)cc(N[C@@H](c3ccc(F)cc3)c3c[nH]nn3)cc2c1NCC1CCCCO1` (stereo partly drawn) [Example 436, 8-chloro-6-(((S)-(4-fluorophenyl)(1H-1,2,3-triazol-4-yl)methyl)amino)-4-(((tetrahydro-2H-pyran-2-yl)methyl)amino)quinoline-3-carbonitrile], the IC50 in assay [1] is 1360 nM. Further, in assay [2] (setting [3]), the EC50 was 3030 nM.
Regarding `CC(C)(C)N1CCC(n2cc([C@@H](Nc3cc(Cl)c4ncc(C#N)c(NCC5CCCCO5)c4c3)c3ccc(F)cc3)nn2)CC1` (stereo partly drawn) [Example 437, 6-(((S)-(1-(1-(tert-butyl)piperidin-4-yl)-1H-1,2,3-triazol-4-yl)(4-fluorophenyl)methyl)amino)-8-chloro-4-(((tetrahydro-2H-pyran-2-yl)methyl)amino)quinoline-3-carbonitrile], the IC50 in assay [1] was determined as 448 nM. Further, the EC50 in assay [2] (setting [3]) was determined as 3910 nM.
Consider `N#Cc1cnc2c(Cl)cc(N[C@@H](c3ccc(F)cc3)c3c[nH]nn3)cc2c1NC1CCCC(O)C1` (stereo partly drawn) [Example 438, 8-chloro-6-(((S)-(4-fluorophenyl)(1H-1,2,3-triazol-4-yl)methyl)amino)-4-((3-hydroxycyclohexyl)amino) quinoline-3-carbonitrile], for which the IC50 in assay [1] worked out at 135 nM. In addition, in assay [2] (setting [3]), the EC50 was 5130 nM.
Take `N#Cc1cnc2c(Cl)cc(N[C@@H](c3ccc(F)cc3)c3c[nH]nn3)cc2c1NC1CCCC(O)C1` (stereo partly drawn) [Example 439, 8-chloro-6-(((S)-(4-fluorophenyl)(1H-1,2,3-triazol-4-yl)methyl)amino)-4-((3-hydroxycyclohexyl)amino) quinoline-3-carbonitrile]: the IC50 in assay [1] was 2960 nM. The EC50 in assay [2] (setting [4]) was > 10000 nM.
In the case of `CC(C)(C)N1CCC(n2cc([C@@H](Nc3cc(Cl)c4ncc(C#N)c(NC5CCCC(O)C5)c4c3)c3ccc(F)cc3)nn2)CC1` (stereo partly drawn) [Example 440, 6-(((S)-(1-(1-(tert-butyl)piperidin-4-yl)-1H-1,2,3-triazol-4-yl)(4-fluorophenyl)methyl)amino)-8-chloro-4-((3-hydroxycyclohexyl)amino) quinoline-3-carbonitrile], in assay [1], the IC50 was 46 nM. Moreover, in assay [2] (setting [4]), the EC50 turned out to be 371 nM.
Take `CC(C)(C)N1CCC(n2cc([C@@H](Nc3cc(Cl)c4ncc(C#N)c(NC5CCCC(O)C5)c4c3)c3ccc(F)cc3)nn2)CC1` (stereo partly drawn) [Example 441, 6-(((S)-(1-(1-(tert-butyl)piperidin-4-yl)-1H-1,2,3-triazol-4-yl)(4-fluorophenyl)methyl)amino)-8-chloro-4-((3-hydroxycyclohexyl)amino) quinoline-3-carbonitrile]: the IC50 in assay [1] was 804 nM. For the same compound, the EC50 in assay [2] (setting [4]) was determined as 5820 nM.
Consider `COc1ccccc1CNc1c(C#N)cnc2c(Cl)cc(N[C@@H](c3ccc(F)cc3)c3cn(C4CCN(C(C)(C)C)CC4)nn3)cc12` [Example 442, (S)-6-(((1-(1-(tert-butyl)piperidin-4-yl)-1H-1,2,3-triazol-4-yl)(4-fluorophenyl)methyl)amino)-8-chloro-4-((2-methoxybenzyl)amino) quinoline-3-carbonitrile], for which, in assay [1], the IC50 was 193 nM. In addition, in assay [2] (setting [3]), the EC50 amounted to 4900 nM.
Take `N#Cc1cnc2c(Cl)cc(N[C@@H](c3ccc(F)cc3)c3c[nH]nn3)cc2c1NCC(F)(F)F` [Example 443, (S)-8-chloro-6-(((4-fluorophenyl)(1H-1,2,3-triazol-4-yl)methyl)amino)-4-((2,2,2-trifluoroethyl)amino) quinoline-3-carbonitrile]: in assay [1], the IC50 stood at 2700 nM. Besides, the EC50 in assay [2] (setting [3]) was > 10000 nM.
In the case of `CC[C@@H](Nc1c(C#N)cnc2c(Cl)cc(N[C@H](c3c[nH]nn3)c3ccccc3F)cc12)c1ccccc1` [Example 444, 8-chloro-6-(((S)-(2-fluorophenyl)(1H-1,2,3-triazol-4-yl)methyl)amino)-4-(((R)-1 phenylpropyl)amino) quinoline-3-carbonitrile], the IC50 in assay [1] was 28 nM. Besides, the EC50 in assay [2] (setting [3]) worked out at 855 nM.
As to `CC[C@@H](Nc1c(C#N)cnc2c(Cl)cc(N[C@H](c3c[nH]nn3)c3cccc(F)c3F)cc12)c1ccccc1` [Example 445, 8-chloro-6-(((S)-(2,3-difluorophenyl)(1H-1,2,3-triazol-4-yl)methyl)amino)-4-(((R)-1-phenylpropyl)amino) quinoline-3-carbonitrile], in assay [1], the IC50 was 46 nM. Moreover, in assay [2] (setting [3]), the EC50 stood at 1270 nM.

The values above are taken from patent US10316017B2, “COT modulators and methods of use thereof” (Gilead Sciences, Inc., priority 2015, dated 2019).
